Results from patent US20260085062A1, “NOVEL COMPOUNDS AS CK2 INHIBITORS” (Cambridge Enterprise Limited, priority 2022, published 2026).

Experiments:
[1] = target: T1, CK2α (Homo sapiens, UniProt P68400); experiment: Biochemical assay for inhibitors of CK2α kinase activity (ADP-Glo); details: 0.2 nM CK2α, 50 μM peptide substrate, 15 μM ATP, read-out: Assay 1: CK2α Enzyme IC50
T1 construct: CK2α (residues 2-329) was produced in Escherichia coli BL21 (DE3) for kinase activity screening; His6 (N, cleaved yes); made in house; host or cells: Escherichia coli BL21 (DE3)
T1 sequence (P68400 2-329): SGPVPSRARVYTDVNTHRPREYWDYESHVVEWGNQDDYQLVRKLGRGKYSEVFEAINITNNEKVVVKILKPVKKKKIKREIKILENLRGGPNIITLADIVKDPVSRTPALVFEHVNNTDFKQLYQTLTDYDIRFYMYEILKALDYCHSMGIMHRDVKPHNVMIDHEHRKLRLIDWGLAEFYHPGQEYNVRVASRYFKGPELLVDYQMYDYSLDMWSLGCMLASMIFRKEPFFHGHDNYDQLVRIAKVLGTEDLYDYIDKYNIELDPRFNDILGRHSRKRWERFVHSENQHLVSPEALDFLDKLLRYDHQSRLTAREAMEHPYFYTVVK
Procedure: The inhibitory activity of putative kinase inhibitors and the potency of selected compounds were determined using ADP-Glo™ assay. The kinase reaction was performed in the presence of excess peptide substrate and ATP at a concentration equivalent to Km. Upon termination of the kinase reaction, remaining ATP was depleted leaving only ADP reaction product, which was converted back to ATP with a coupled luciferin/luciferase reaction. The luminescent output from the coupled reaction was quantified and correlated with the kinase activity. […] Single colonies of the cells were grown in 6×1 L of 2×TY with 100 μg/mL ampicillin at 37° C. […] The cells were incubated overnight at 25° C. then harvested by centrifugation at 4,000 g for 20 minutes. The cell pellets were suspended in 20 mM Tris, 500 mM NaCl, pH 8.0 and lysed using a high pressure homogenizer. Protease inhibitor cocktail tablets (one tablet per 50 mL extract; Roche Diagnostics) and DNase I were then added. The crude cell extract was then centrifuged at 10,000 g for 45 minutes, the supernatant was filtered with a 0.22 μm filter. The soluble supernatant was applied on a Ni Sepharose Fast Flow6 column at pH 8.0, washed and eluted in 20 mM Tris pH 8.0, 500 mM NaCl, 200 mM imidazole. […] The cleaved protein was further purified on a Sepharose Q HP anion-exchange column and the main peak fraction from this column was further purified by gel filtration on a Superdex 75 16/60 HiPrep column equilibrated with Tris 20 mM, pH 8.0, 500 mM NaCl. Pure protein was concentrated to 15 mg/mL and flash frozen in liquid nitrogen. […] The assay was conducted as follows: • 1. […] After 120 minutes, the reaction was stopped by addition of 5 pl ADP-Glo reagent (Promega V9102) and the plate incubated at RT for a further 60 minutes. • 5. 10 μL of Kinase Detection reagent (Promega V9102) was added to assay plate and incubated for a further 30 minutes prior to reading luminescence on an Envision (Perkin-Elmer). Data was analysed to calculate compound IC50and Ki as follows: • 1. […] Percent activity was calculated for each well using: (Test well reading−MEAN100%inhibition control wells)/(MEAN0% inhibition control wells−MEAN100%inhibition control wells). • 5. Morrison Ki was determined using Morrison Ki equation (XL-fit).

[2] = target: T2, intracellular CK2α (Homo sapiens, UniProt P19784); experiment: Cell-based NanoBRET assay for inhibitor binding to intracellular CK2α; details: HCT116 cells transiently transfected with CSNK2A2-NanoLuc fusion vector; Tracer K-5; 2 h; read-out: Assay 3: NanoBRET ™ assay for binding to intracellular CK2α
T2 construct: host or cells: HCT116 (ATCC CCL-247)
T2 sequence (P19784 whole entry, the tested form may be a part): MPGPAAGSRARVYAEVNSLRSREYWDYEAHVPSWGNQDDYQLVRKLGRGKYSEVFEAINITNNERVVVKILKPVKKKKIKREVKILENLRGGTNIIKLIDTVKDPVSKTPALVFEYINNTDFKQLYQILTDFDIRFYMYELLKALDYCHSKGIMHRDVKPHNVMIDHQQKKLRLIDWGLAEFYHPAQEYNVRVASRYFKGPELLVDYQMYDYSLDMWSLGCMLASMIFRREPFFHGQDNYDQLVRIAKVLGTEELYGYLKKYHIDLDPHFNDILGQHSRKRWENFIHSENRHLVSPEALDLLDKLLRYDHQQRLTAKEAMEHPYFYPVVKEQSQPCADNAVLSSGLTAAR
Procedure: This assay used the NanoBRET™ System (Promega), an energy transfer technique designed to measure molecular proximity in living cells. The assay measured the apparent affinity of test compounds by competitive displacement of a NanoBRET™ tracer reversibly bound to a NanoLucR luciferase CK2α fusion protein in cells. A fixed concentration of tracer was added to cells expressing the desired NanoLucR-CK2α fusion protein to generate a BRET reporter complex. […] Donor emission wavelength (450 nm) and acceptor emission wavelength (610 nm or 630 nm) were measured on the Envision (Perkin-Elmer) and BRET ratio calculated for data analysis: BRET Ratio=(Acceptorsample/Donorsample)×1,000. • 7.

[3] = target: T3, CLK2 (Homo sapiens, UniProt P49760); experiment: Biochemical assay for inhibitors of CLK2 kinase activity (ADP-Glo); details: 20 nM CLK2, 50 μM peptide substrate, 100 μM ATP, read-out: Assay 2: CLK2 Enzyme IC50
T3 construct: purchased Carna Biosciences 04-127
T3 sequence (P49760 whole entry): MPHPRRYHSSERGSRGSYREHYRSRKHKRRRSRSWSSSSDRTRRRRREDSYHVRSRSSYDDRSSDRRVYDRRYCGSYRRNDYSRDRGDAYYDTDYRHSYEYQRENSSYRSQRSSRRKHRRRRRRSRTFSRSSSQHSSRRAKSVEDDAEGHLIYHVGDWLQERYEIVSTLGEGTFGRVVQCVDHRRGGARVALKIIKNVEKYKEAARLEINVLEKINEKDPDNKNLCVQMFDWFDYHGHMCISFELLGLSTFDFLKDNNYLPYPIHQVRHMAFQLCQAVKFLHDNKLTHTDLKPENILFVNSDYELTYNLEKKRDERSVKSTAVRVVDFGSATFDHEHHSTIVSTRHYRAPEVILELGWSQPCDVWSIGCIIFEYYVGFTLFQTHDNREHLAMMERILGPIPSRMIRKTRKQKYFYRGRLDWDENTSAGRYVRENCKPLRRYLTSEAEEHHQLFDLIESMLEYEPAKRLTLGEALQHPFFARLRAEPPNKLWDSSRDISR
Procedure: The inhibitory activity of putative kinase inhibitors and the potency of selected compounds were determined using ADP-GloTM assay. The kinase reaction was performed in the presence of excess peptide substrate and ATP at a concentration equivalent to Km. Upon termination of the kinase reaction, remaining ATP was depleted leaving only ADP reaction product, which was converted back to ATP with a coupled luciferin/luciferase reaction. The luminescent output from the coupled reaction was quantified and correlated with the kinase activity. […] The assay was conducted as follows: • 1. […] After 120 minutes, the reaction was stopped by addition of 5 pl ADP-Glo reagent (Promega V9102) and the plate incubated at RT for a further 60 minutes. • 5. 10 μL of Kinase Detection reagent (Promega V9102) was added to assay plate and incubated for a further 30 minutes prior to reading luminescence on an Envision (Perkin-Elmer). Data was analysed to calculate compound IC50and Ki as follows: • 1. […] Morrison Ki was determined using Morrison Ki equation (XL-fit).

Compound	IC50 [1] [µM]	IC50 [2] [µM]	IC50 [3] [µM]
O=C(CNCCCCNCc1ccc(OC(F)(F)F)c(Cl)c1)Nc1cc(-n2cnnc2)cc2[nH]ncc12 [Example 17, N-(6-(4H-1,2,4-triazol-4-yl)-1H-indazol-4-yl)-2-((4-((3-chloro-4-(trifluoromethoxy)benzyl)amino)butyl)amino)acetamide]	0.00826	3.84	2.78
O=C(CCNCc1ccc(OC(F)(F)F)c(Cl)c1)NCCC(=O)Nc1cc(-n2cnnc2)cc2[nH]ncc12 [Example 18, N-(6-(4H-1,2,4-triazol-4-yl)-1H-indazol-4-yl)-3-(3-((3-chloro-4-(trifluoromethoxy)benzyl)amino)propanamido)propanamide]	0.00281	4.42	1.62
O=C(CCNCc1ccc(OC(F)(F)F)c(Cl)c1)NCCCOc1cc(-n2cnnc2)cc2[nH]ncc12 [Example 19, N-(3-((6-(4H-1,2,4-triazol-4-yl)-1H-indazol-4-yl)oxy)propyl)-3-((3-chloro-4-(trifluoromethoxy)benzyl)amino)propanamide]	0.00313	5.07	0.574
CN(CCCNc1cc(-n2cnnc2)cc2[nH]ncc12)C(=O)CCNCc1ccc(OC(F)(F)F)c(Cl)c1 [Example 20, N-(3-((6-(4H-1,2,4-triazol-4-yl)-1H-indazol-4-yl)amino)propyl)-3-((3-chloro-4-(trifluoromethoxy)benzyl)amino)-N-methylpropanamide]	0.0235	3.3	0.158
Cc1cc(-c2cc(NCCCNC(=O)CCNCc3ccc(-c4ccccc4)c(Cl)c3)c3cn[nH]c3c2)ccn1 [Example 21, 3-(((2-Chloro-[1,1′-biphenyl]-4-yl)methyl)amino)-N-(3-((6-(2-methylpyridin-4-yl)-1H-indazol-4-yl)amino)propyl)propanamide]	0.00293	0.346	0.446
COc1cc(-c2cc(NCCCNC(=O)CCNCc3ccc(-c4ccccc4)c(Cl)c3)c3cn[nH]c3c2)ccn1 [Example 22, 3-(((2-Chloro-[1,1′-biphenyl]-4-yl)methyl)amino)-N-(3-((6-(2-methoxypyridin-4-yl)-1H-indazol-4-yl)amino)propyl)propanamide]	0.00135	0.363	1.12
Clc1ccc2nc(CNCCCCOCCNc3cc(-n4cnnc4)cc4[nH]ncc34)[nH]c2c1 [Example 23, N-(2-(4-(((6-chloro-1H-benzo[d]imidazol-2-yl)methyl)amino)butoxy)ethyl)-6-(4H-1,2,4-triazol-4-yl)-1H-indazol-4-amine]	0.0199	17.5	0.0861
FC(F)(F)Oc1ccc(CNCCCCNCCNc2cc(-n3cnnc3)cc3[nH]ncc23)cc1Cl [Example 24, N^1-(2-((6-(4H-1,2,4-triazol-4-yl)-1H-indazol-4-yl)amino)ethyl)-N^4-(3-chloro-4-(trifluoromethoxy)benzyl)butane-1,4-diamine]	0.00078	0.591	0.344
O=C(CCNCc1ccc(-c2ccccc2)c(Cl)c1)NCCCNc1cc(-c2cn[nH]n2)cc2[nH]ncc12 [Example 25, N-(3-((6-(2H-1,2,3-triazol-4-yl)-1H-indazol-4-yl)amino)propyl)-3-(((2-chloro-[1,1′-biphenyl]-4-yl)methyl)amino)propanamid]	0.00044	0.0936	0.0182
O=C(CCNCc1ccc(-c2ccccc2)c(Cl)c1)NCCCNc1cc(-c2cccnc2)cc2[nH]ncc12 [Example 26, 3-(((2-chloro-[1,1'-biphenyl]-4-yl)methyl)amino)-N-(3-((6-(pyridin-3-yl)-1H-indazol-4-yl)amino)propyl)propanamide]	0.0204	0.875	4.46
Cc1n[nH]cc1-c1cc(NCCCNC(=O)CCNCc2ccc(-c3ccccc3)c(Cl)c2)c2cn[nH]c2c1 [Example 27, 3-(((2-chloro-[1,1′-biphenyl]-4-yl)methyl)amino)-N-(3-((6-(3-methyl-1H-pyrazol-4-yl)-1H-indazol-4-yl)amino)propyl)propanamide]	0.00095	0.322	0.0564
O=C(CCNCc1ccc(-c2ccccc2)c(Cl)c1)NCCCNc1cc(-c2cnoc2)cc2[nH]ncc12 [Example 28, 3-(((2-chloro-[1,1′-biphenyl]-4-yl)methyl)amino)-N-(3-((6-(isoxazol-4-yl)-1H-indazol-4-yl)amino)propyl)propanamide]	0.00054	0.0706	0.107
Cc1cn(-c2cc(NCCCNC(=O)CCNCc3ccc(-c4ccccc4)c(Cl)c3)c3cn[nH]c3c2)cn1 [Example 29, 3-(((2-chloro-[1,1′-biphenyl]-4-yl)methyl)amino)-N-(3-((6-(4-methyl-1H-imidazol-1-yl)-1H-indazol-4-yl)amino)propyl)propanamide]	0.0221	2.09	0.649
O=C(CCNCc1ccc(-c2ccccc2)c(Cl)c1)NCCCNc1cc(-c2cc[n+]([O-])cc2)cc2[nH]ncc12 [Example 30, 4-(4-((3-(3-(((2-chloro-[1,1′-biphenyl]-4-yl)methyl)amino)propanamido)propyl)amino)-1H-indazol-6-yl)pyridine 1-oxide]	0.00099	0.816	2.56
O=C(CCNCc1ccc(OC(F)(F)F)c(Cl)c1)NCCCNc1cc(-c2cc[nH]c(=O)c2)cc2[nH]ncc12 [Example 31, 3-((3-chloro-4-(trifluoromethoxy)benzyl)amino)-N-(3-((6-(2-oxo-1,2-dihydropyridin-4-yl)-1H-indazol-4-yl)amino)propyl)propanamide]	0.00032	0.753	0.526
O=C(CCNCc1ccc(OC(F)(F)F)c(Cl)c1)NCCCNc1cc(-c2cnns2)cc2[nH]ncc12 [Example 32, N-(3-((6-(1,2,3-thiadiazol-5-yl)-1H-indazol-4-yl)amino)propyl)-3-((3-chloro-4-(trifluoromethoxy)benzyl)amino)propanamide]	0.00047	0.0177	0.0759
O=C(CCNCc1ccc(OC(F)(F)F)c(Cl)c1)NCCCNc1cc(-n2cnnc2)cc2[nH]ncc12 [Example 33, N-(3-((6-(4H-1,2,4-triazol-4-yl)-1H-indazol-4-yl)amino)propyl)-3-((3-chloro-4-(trifluoromethoxy)benzyl)amino)propanamide]	0.00048	0.452	0.0778
